In patent US11814367B2, “Inhibitors of glycogen synthase 1 (GYS1) and methods of use thereof” (Maze Therapeutics, Inc., priority 2021, dated 2023):

Target: hGYS1 enzyme (recombinant hGYS1/GN1 protein) (Homo sapiens (Human), UniProt P13807)
Assay: GYS1 coupled enzyme assay (PK/LDH)
Assay type: biochemical
Details: hGYS1/GN1 50 nM, UDP-Glucose 0.8 mM, G6P 1 mM; geometric mean of at least 2 runs
From the text: The GYS1 coupled enzyme assay is a kinetic biochemical assay that indirectly quantifies the rate of glycogen synthesis by coupling the conversion of GYS1 substrate UDP-glucose into UDP with downstream enzymatic reactions. UDP is released from UDP-glucose as glucose monomers are linked into the growing glycogen strand by GYS1. The coupled assay then proceeds with pyruvate kinase utilizing UDP and phospho(enol)pyruvate (PEP) to form pyruvate. Lactate dehydrogenase then converts pyruvate and NADH into lactate and NAD+. Oxidation of NADH to NAD+ can be measured continuously with a plate reader by quantifying the decrease in NADH absorbance at 340 nm over time.
Compounds that inhibit the hGYS1 enzyme and, subsequently, the downstream conversion of NADH to NAD+, were tested using assay ready plates (black, clear bottom 384 well plates) in a final DMSO reaction volume of 2.5% DMSO. The Assay Buffer contained 50 mM Tris pH 7.5, 2 mM MgCl2, and 100 mM KCl. Fresh stocks of BSA at a final concentration of 0.02% and TCEP at 1 mM were added before splitting buffer into hGYS1 buffer and substrate buffer. To the hGYS1 buffer, rabbit liver glycogen was added at a final concentration of 0.2% glycogen. Glucose-6-Phosphate was added at 1 mM, recombinant hGYS1/GN1 protein was added at 50 nM to the substrate buffer, phosphoenolpyruvate (PEP) was added at 2 mM, UDP-Glucose was added at 0.8 mM, NADH) was added at 0.6 mM, and Pyruvate Kinase/Lactate Dehydrogenase was added at 20 units/mL. The reaction was initiated by mixing hGYS1 buffer and substrate buffer at a 1:1 ratio. Both buffers were plated using a liquid dispensing device with hGYS1 buffer plated first followed by the substrate buffer. Plates were spun briefly to eliminate air bubbles and are immediately read in continuous mode at an absorbance of 340 nm, for 10 time points in one-minute increments, for a total of 10 minutes. The slope from these 10 time points was normalized to the positive and negative control wells. The duplicate % inhibition values are then averaged and fit to a Hill equation for dose response according to the Levenberg-Marquardt algorithm with the Hill equation maximum set to 100 and the minimum set to 0.
Unless otherwise specified, IC50 values are reported as the geometric mean of at least 2 assay runs on separate days. Each run represents the average of a technical replicate, where each compound was assayed twice in the same plate. […] A superscript “#” symbol in Table 2 indicates results from a single assay run.

Chain of hGYS1 enzyme (recombinant hGYS1/GN1 protein) (P13807 whole entry): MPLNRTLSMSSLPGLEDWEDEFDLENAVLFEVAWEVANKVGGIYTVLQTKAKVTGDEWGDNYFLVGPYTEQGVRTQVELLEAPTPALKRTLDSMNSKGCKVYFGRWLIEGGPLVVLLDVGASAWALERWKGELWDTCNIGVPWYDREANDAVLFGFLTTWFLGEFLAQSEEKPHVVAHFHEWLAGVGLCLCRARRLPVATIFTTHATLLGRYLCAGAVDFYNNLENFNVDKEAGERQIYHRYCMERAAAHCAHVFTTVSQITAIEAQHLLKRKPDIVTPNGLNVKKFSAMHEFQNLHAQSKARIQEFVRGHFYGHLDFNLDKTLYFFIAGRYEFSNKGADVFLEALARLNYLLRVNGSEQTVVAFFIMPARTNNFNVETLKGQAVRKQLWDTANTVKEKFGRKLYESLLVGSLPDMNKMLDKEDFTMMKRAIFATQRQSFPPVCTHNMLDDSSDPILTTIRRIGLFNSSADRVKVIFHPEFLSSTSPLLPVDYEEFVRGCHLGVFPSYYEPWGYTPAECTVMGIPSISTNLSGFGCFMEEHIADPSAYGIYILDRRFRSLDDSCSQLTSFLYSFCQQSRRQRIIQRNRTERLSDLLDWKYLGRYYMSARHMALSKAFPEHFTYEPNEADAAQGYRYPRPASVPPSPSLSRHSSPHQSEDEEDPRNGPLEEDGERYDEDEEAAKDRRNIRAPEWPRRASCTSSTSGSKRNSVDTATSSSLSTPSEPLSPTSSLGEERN
Chain of hGYS1 enzyme (recombinant hGYS1/GN1 protein) (P46976 whole entry partner): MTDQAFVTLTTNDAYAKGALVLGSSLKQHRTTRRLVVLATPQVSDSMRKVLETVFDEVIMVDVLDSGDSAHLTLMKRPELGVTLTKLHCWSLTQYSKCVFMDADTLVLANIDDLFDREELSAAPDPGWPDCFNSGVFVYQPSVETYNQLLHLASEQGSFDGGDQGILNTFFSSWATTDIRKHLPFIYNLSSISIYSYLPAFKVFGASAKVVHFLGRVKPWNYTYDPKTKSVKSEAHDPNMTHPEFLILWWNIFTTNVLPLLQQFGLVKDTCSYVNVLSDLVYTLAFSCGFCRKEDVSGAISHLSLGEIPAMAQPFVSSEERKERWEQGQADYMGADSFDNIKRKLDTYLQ

Structure (SMILES)	IC50 [µM]
CC(=O)N1C[C@H](F)C[C@H]1C(=O)N[C@@H](c1ccc(C(C)C)cc1)c1ccn[nH]1 [Compound 614, (2S,4R)-1-acetyl-4-fluoro-N-[(S)-[4-(propan-2-yl)phenyl](1H-pyrazol-5-yl)methyl]pyrrolidine-2-carboxamide]	1.15
CC(C)c1ccc([C@@H](NC(=O)[C@@H]2C[C@@H](F)CN2C(=O)c2cccn3c(=O)[nH]nc23)c2ccccc2)cc1 [Compound 74, (2S,4R)-4-fluoro-1-{3-oxo-2H,3H-[1,2,4]triazolo[4,3-a]pyridine-8-carbonyl}-N-[(S)-phenyl[4-(propan-2-yl)phenyl]methyl]pyrrolidine-2-carboxamide]	0.705
CC(C)c1ccc([C@@H](NC(=O)[C@@H]2C[C@@H](F)CN2C(=O)Cc2[nH]nnc2N2CCN(C(=O)OC(C)(C)C)CC2)c2ccccc2)cc1F [Compound 370, tert-butyl 4-(5-{2-[(2S,4R)-4-fluoro-2-{[(S)-[3-fluoro-4-(propan-2-yl)phenyl](phenyl)methyl]carbamoyl}pyrrolidin-1-yl]-2-oxoethyl}-1H-1,2,3-triazol-4-yl)piperazine-1-carboxylate]	0.569
O=C(NC(c1ccc(C2CC2)c(F)c1)c1cccc2[nH]c(=O)[nH]c12)[C@@H]1CCCN1C(=O)Cc1cnn[nH]1 (single isomer, unassigned) [Compound 648]	0.616
CC(=O)N1C[C@H](F)C[C@H]1C(=O)N[C@H](c1cccc(-c2nnc[nH]2)c1)c1ccc(C(C)C)c(F)n1 (single isomer, unassigned) [Compound 689, (2S,4R)—N—((R) or (S)-(3-(4H-1,2,4-triazol-3-yl)phenyl)(6-fluoro-5-isopropylpyridin-2-yl)methyl)-1-acetyl-4-fluoropyrrolidine-2-carboxamide]	> 10
CC(C)c1ccc([C@@H](NC(=O)[C@@H]2C[C@@H](F)CN2C(=O)c2ccc3c(n2)NC(=O)CC3)c2ccccc2)cc1 [Compound 704, (2S,4R)-4-fluoro-1-(7-oxo-5,6,7,8-tetrahydro-1,8-naphthyridine-2-carbonyl)-N-[(S)-phenyl[4-(propan-2-yl)phenyl]methyl]pyrrol-idine-2-carboxamide]	2.22
CC(=O)N1CCC(C)(C(=O)N2C[C@H](F)C[C@H]2C(=O)N[C@@H](c2ccccc2)c2ccc(C(C)C)cc2)C1 (stereo partly drawn) [Compound 152, (2S,4R)-1-(1-acetyl-3-methylpyrrolidine-3-carbonyl)-4-fluoro-N-[(S)-phenyl[4-(propan-2-yl)phenyl]methyl]pyrrolidine-2-carboxamide]	0.132
Cc1nc(CC(=O)N2C[C@H](F)C[C@H]2C(=O)N[C@@H](c2ccccc2)c2ccc(C3CC3)c(F)n2)oc1C [Compound 761, (2S,4R)-N-[(S)-(5-cyclopropyl-6-fluoropyridin-2-yl)(phenyl)methyl]-1-[2-(4,5-dimethyl-1,3-oxazol-2-yl)acetyl]-4-fluoropyrrolidine-2-carboxamide]	0.055
O=C(N[C@@H](c1ccccc1)c1ccc(C2CC2)c(F)n1)[C@@H]1[C@H](O)[C@@H](F)CN1C(=O)Cn1nnnc1C(F)F [Compound 764, (2S,3S,4S)-N-[(S)-(5-cyclopropyl-6-fluoropyridin-2-yl)(phenyl)methyl]-1-{2-[5-(difluoromethyl)-1H-1,2,3,4-tetrazol-1-yl]acetyl}-4-fluoro-3-hydroxypyrrolidine-2-carboxamide]	0.155
CC(=O)NCC(=O)N1CCC[C@H]1C(=O)N[C@@H](c1ccccc1)c1ccc(C(C)C)cc1 [Compound 212, (2S)-1-(2-acetamidoacetyl)-N-[(S)-phenyl[4-(propan-2-yl)phenyl]methyl]pyrrolidine-2-carboxamide]	0.095
CC(C)c1ccc([C@@H](NC(=O)[C@@H]2C[C@@H](F)CN2C(=O)C2CCC3CCC(=O)N3C2)c2ccccc2)cc1 (stereo partly drawn) [Compound 139, (2S,4R)-4-fluoro-1-(3-oxo-octahydroindolizine-6-carbonyl)-N-[(S)-phenyl[4-(propan-2-yl)phenyl]methyl]pyrrolidine-2-carboxamide]	0.357
CC(=O)N1C[C@H]2C[C@@]2(C(=O)N2C[C@H](F)C[C@H]2C(=O)N[C@@H](c2ccccc2)c2ccc(C(C)C)cc2)C1 [Compound 148, (2S,4R)-1-[(1S,5S)-3-acetyl-3-azabicyclo[3.1.0]hexane-1-carbonyl]-4-fluoro-N-[(S)-phenyl[4-(propan-2-yl)phenyl]methyl]pyrrolidine-2-carboxamide]	0.344
CC(=O)N1[C@@H]2C[C@@H]2C[C@H]1C(=O)N[C@@H](c1ccccc1)c1ccc(C(C)C)cc1 [Compound 200, (1R,3S,5R)-2-acetyl-N-[(S)-phenyl[4-(propan-2-yl)phenyl]methyl]-2-azabicyclo[3.1.0]hexane-3-carboxamide]	4.42
CC(=O)N1CCC2(CCCC2C(=O)N2C[C@H](F)C[C@H]2C(=O)N[C@@H](c2ccccc2)c2ccc(C(C)C)cc2)C1 (stereo partly drawn) [Compound 182, (2S,4R)-1-{2-acetyl-2-azaspiro[4.4]nonane-6-carbonyl}-4-fluoro-N-[(S)-phenyl[4-(propan-2-yl)phenyl]methyl]pyrrolidine-2-carboxamide]	0.748
CC(=O)N1[C@H](C(=O)N[C@@H](c2ccccc2)c2ccc(C(C)C)cc2)C[C@@H]2C[C@@H]21 [Compound 199, (1S,3S,5S)-2-acetyl-N-[(S)-phenyl[4-(propan-2-yl)phenyl]methyl]-2-azabicyclo[3.1.0]hexane-3-carboxamide]	1.19
CC(C)c1ccc([C@H](NC(=O)[C@@H]2C[C@@H](F)CN2C(=O)Cc2cnn[nH]2)c2cccc(F)c2)cc1F [Compound 647, (2S,4R)-4-fluoro-N-[(R)-[3-fluoro-4-(propan-2-yl)phenyl](3-fluorophenyl)methyl]-1-[2-(1H-1,2,3-triazol-5-yl)acetyl]pyrrolidine-2-carboxamide]	1.64
CC(=O)N1C[C@H]2CC[C@@H](C1)[C@@H]2C(=O)N1C[C@H](F)C[C@H]1C(=O)N[C@@H](c1ccccc1)c1ccc(C(C)C)cc1 [Compound 173, (2S,4R)-1-[(1R,5S,8S)-3-acetyl-3-azabicyclo[3.2.1]octane-8-carbonyl]-4-fluoro-N-[(S)-phenyl[4-(propan-2-yl)phenyl]methyl]pyrrolidine-2-carboxamide]	0.844
CC(=O)N1C[C@H](F)C[C@H]1C(=O)N[C@@H](c1cccc(-c2nnc[nH]2)c1)c1ccc(C(C)C)c(F)n1 (single isomer, unassigned) [Compound 688, (2S,4R)—N—((S) or (R)-(3-(4H-1,2,4-triazol-3-yl)phenyl)(6-fluoro-5-isopropylpyridin-2-yl)methyl)-1-acetyl-4-fluoropyrrolidine-2-carboxamide]	0.106
CC(C)c1ccc([C@@H](NC(=O)[C@@H]2C[C@@H](F)CN2C(=O)Cc2cnoc2)c2ccccc2)cc1 [Compound 230, (2S,4R)-4-fluoro-1-[2-(1,2-oxazol-4-yl)acetyl]-N-[(S)-phenyl[4-(propan-2-yl)phenyl]methyl]pyrrolidine-2-carboxamide]	0.117
CC(C)c1ccc([C@@H](NC(=O)[C@@H]2C[C@@H](F)CN2C(=O)Cc2cc[nH]n2)c2ccccc2)cc1 (stereo in doubt) [Compound 225, (2RS,4R)-4-fluoro-N-[(S)-phenyl[4-(propan-2-yl)phenyl]methyl]-1-[2-(1H-pyrazol-3-yl)acetyl]pyrrolidine-2-carboxamide]	0.044
CC(=O)N1CC2(CC(C(=O)N3C[C@H](F)C[C@H]3C(=O)N[C@@H](c3ccccc3)c3ccc(C(C)C)cc3)CO2)C1 (stereo partly drawn) [Compound 164, (2S,4R)-1-{2-acetyl-5-oxa-2-azaspiro[3.4]octane-7-carbonyl}-4-fluoro-N-[(S)-phenyl[4-(propan-2-yl)phenyl]methyl]pyrrolidine-2-carboxamide]	0.467
O=C(N[C@@H](c1ccccc1)c1ccc(C2CC2)c(F)n1)[C@@H]1C[C@@H](F)CN1C(=O)Cn1nncc1N1CCC1 [Compound 762, (2S,4R)-1-{2-[5-(azetidin-1-yl)-1H-1,2,3-triazol-1-yl]acetyl}-N-[(S)-(5-cyclopropyl-6-fluoropyridin-2-yl)(phenyl)methyl]-4-fluoropyrrolidine-2-carboxamide]	0.027
CO[C@H](C)[C@@H](C(=O)N1C[C@H](F)C[C@H]1C(=O)N[C@@H](c1ccccc1)c1ccc(C(C)C)cc1)N(C)C(C)=O [Compound 5, (2S,4R)-4-fluoro-1-[(2S,3R)-3-methoxy-2-(N-methylacetamido)butanoyl]-N-[(S)-phenyl[4-(propan-2-yl)phenyl]methyl]pyrrolidine-2-carboxamide]	0.353
